Experimental data: patent publication US7741493B2, “Heterocyclic compounds as P2X7 ion channel blockers” (Aventis Pharmaceuticals Inc., priority 2003, dated 2010)
Structures can show the parent of a compound that is named as a salt. Each block holds one molecule with its values, some of them ahead of it.

Legend:
[1] = tested on: Long Evans derived male rats; assay: carrageenan induced paw edema; format: in vivo, rat; conditions: 150 mg/kg, PO
P2X7 [2] = target: T1, P2X7 (Homo sapiens, UniProt Q99572); assay: BzATP-induced IL-1β secretion from human monocytes/macrophages activated by beta amyloid peptide 1-42 (ELISA); format: cell-based; set-up: Monocytes were isolated from peripheral blood mononuclear cells (PBMCs); endogenous in cells; host or cells: primary monocytes isolated from peripheral blood mononuclear cells
T1 sequence (Q99572 1-595): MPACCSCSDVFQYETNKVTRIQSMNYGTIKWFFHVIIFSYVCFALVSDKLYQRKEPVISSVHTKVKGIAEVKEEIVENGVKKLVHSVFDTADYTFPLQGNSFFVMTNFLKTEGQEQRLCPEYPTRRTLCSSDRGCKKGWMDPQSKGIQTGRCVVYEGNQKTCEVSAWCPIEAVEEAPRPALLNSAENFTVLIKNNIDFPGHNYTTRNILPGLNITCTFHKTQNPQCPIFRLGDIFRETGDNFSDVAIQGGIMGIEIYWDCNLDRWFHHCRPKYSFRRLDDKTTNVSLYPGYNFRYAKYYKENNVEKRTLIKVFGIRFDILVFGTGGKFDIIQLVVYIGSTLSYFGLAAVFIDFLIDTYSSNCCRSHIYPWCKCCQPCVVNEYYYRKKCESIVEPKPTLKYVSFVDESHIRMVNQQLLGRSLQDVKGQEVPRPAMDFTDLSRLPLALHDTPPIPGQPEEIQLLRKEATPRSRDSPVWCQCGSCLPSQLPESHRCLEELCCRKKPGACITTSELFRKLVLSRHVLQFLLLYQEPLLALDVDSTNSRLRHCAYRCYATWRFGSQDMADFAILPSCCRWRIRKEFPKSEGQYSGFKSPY
Procedure: Cell isolation: Monocytes were isolated from peripheral blood mononuclear cells (PBMCs) as follows. Whole blood was layered directly onto Histopak 1077-1 columns (Sigma Biochemicals) and centrifuged at 800×g for 15 minutes. The PBMC band of cells was removed to a fresh 50 ml culture tube and diluted 1:1 with wash buffer (Phosphate buffered saline, pH 7.4 containing 2 mM EDTA and 5 mg/ml BSA) followed by centrifugation at 800×g for 5 minutes. Cells were then washed by sequential resuspension of the cell pellet in wash buffer and centrifugation at 600×g for 5 minutes. The wash process was repeated until the supernatant was clear of contaminating platelets (5 to 6 washes). Monocytes were then purified from the PBMCs by negative selection using a monocyte isolation kit (Miltenyi Biotec, Inc) that contains antibodies to non-monocytic cells, running the cells over a magnetic column to remove antibody-bound cells, and collecting the flow through volume of monocytes. Monocytes were washed once with wash buffer and seeded at 10E5 cells per well in 100 μl serum-free RPMI 1640 in 96-well plates and incubated for 1 hour at 37° C. in a 5% CO2/95% humidified tissue culture incubator. After 1 hour, the medium was replaced with 100 μl complete culture medium (RPMI 1640, 10% human serum-type AB (heat inactivated), 25 mM HEPES, 2 mM glutamine, 50 U/ml each of penicillin and streptomycin) and incubated overnight (16 hours). Dosing regimen: The next day, the culture medium was replaced with 100 μl fresh complete culture medium in the absence or presence of human beta amyloid 1-42 peptide (5 μM) and incubated at 37° C. in a 5% CO2/95% humidified tissue culture incubator for 5 hours. Medium was then removed and discarded. Each well was washed once with Hanks buffered saline (HBSS) containing 1 mM CaCl2 followed by the addition of 80 μl of HBSS/CaCl2. […] Medium was then removed to new 96-well plates for storage at −70° C. until the IL-1β content was quantitated by ELISA (from R&D Systems). The cells were washed once with HBSS/CaCl2 followed by lysing the cells with 100 μl ice cold lysis buffer (100 mM Tris, pH 7.6, 1% triton X-100, and 1 tablet per 30 ml Complete TM protease inhibitor from Roche Biochemicals, Inc). Cell lysates were stored at −70° C. until the IL-1β was quantitated by ELISA. The results thus obtained for percent inhibition of BzATP-induced IL-1β secretion using a few of the P2X-7 compounds of the present invention are summarized in Table 7.

P2X7 [3] = target: T1, P2X7; assay: YO-PRO-1 dye uptake assay in U373 cells stably expressing P2X7; format: cell-based; set-up: The complete open reading frame of human P2X7 was amplified from Incyte clone 148057; expressed in transfected cells; conditions: dye uptake through P2X7, U373 cells, 300 μM BzATP, 5 μM YO-PRO-1, test compounds 30 nM to 3 μM
Method in brief: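 U373 cells stably expressing human P2X7 preincubated 20 min at 37° C. with compound (30 nM to 3 μM) in Mg/Ca-free HBSS. YO-PRO-1 (5 μM final) and BzATP (300 μM final) then added for 1.5 h at 37° C.; dye-uptake fluorescence compared with compound-free control.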

Wistar derived male rats = assay: 2,4-dinitrobenzenesulfonic acid (DNBS) induced distal colitis; format: in vivo, rat; conditions: 30 mg/kg×7, oral administration
Balb/cByJ mice = assay: monoclonal antibody (mAb) type II collagen induced arthritis; format: in vivo, mouse; conditions: 3 mg/kg×3, PO
Procedure: This Example illustrates the anti-inflammatory activity of the compounds of this invention using a model of Balb/c mice subjected to monoclonal antibody (mAb) type II collagen induced arthritis.
A compound of this invention is dissolved in vehicle of 2% Tween 80/0.9% NaCl, at doses of 50 or 30 and administered orally (50 mg/kg) or intraperitoneally at 30 mg/kg once daily for 3 consecutive days after monoclonal antibody of collagen was injected. Dosing volume is 20 ml/kg.
Groups of 5 Balb/cByJ mice strain, 6-8 weeks of age, are used for the induction of arthritis by monoclonal antibodies (mAbs) responding to type II collagen, plus lipopolysaccharide (LPS). The animals are administered intravenously with a combination of 4 different mAbs (D8, F10, DI-2G and A2) in total of 4 mg/mouse at day 0, and followed by intravenous 25 μg of LPS 72 hours later (day 3). From day 3, one hour after LPS administration, ML-659 at 50 mg/kg (PO) or 30 mg/kg (IP) and vehicle (2% Tween 80/0.9% NaCl, PO) as well as the positive control indomethacin, 3 mg/kg (PO) are administrated once daily for 3 consecutive days. A plethysmometer (Ugo Basile Cat # 7150) with water cell (12 mm diameter) is used for the measurement of increase in volume of the two hind paws at day 0, 5, 7, 10, 14, and 17. The percent inhibition of increase in volume is calculated by the following formula: Inhibition (%): [1−(Tn−To)/(Cn−Co)]×100 Where: Co (Cn): volume of day 0 (day n) in vehicle control To (Tn): volume of day 0 (day n) in test compound-treated group The reduction of both of two hind paws edema by more than 30% is considered significant.

[4] = BzATP (300 μM)-induced IL-1β secretion, human monocytes primed with beta amyloid 1-42 (5 μM), read-out: IC50

SMILES: CC(=O)Oc1ccccc1C(=O)O [aspirin]
- inhibition of inflammation (hind paw edema) [1]: 38%

SMILES: O=C(O)c1cc(/N=N/c2ccc(S(=O)(=O)Nc3ccccn3)cc2)ccc1O [sulfasalazine]
- inhibition of the inflammation (Wistar derived male rats): 37%

SMILES: Fc1cccc(CNC2=N[C@@H](c3cccc(F)c3)[C@@H](c3cccc(F)c3)N2)c1 [[cis-4,5-bis-(3-Fluorophenyl)-4,5-dihydro-1H-imidazol-2-yl]-(3-fluorobenzyl)amine hydrochloride]
- IC50 (P2X7 [2]): 1280 nM
- IC50 (P2X7 [3]; read-out: IC50): 42 nM

SMILES: Fc1cccc(CC2=N[C@H](c3ccccc3)[C@H](c3ccccc3)N2)c1 [cis-4,5-diphenyl-2-(3-fluorobenzyl)-4,5-dihydro-1H-imidazole]
- IC50 (P2X7 [3]; IC50 (nM)): 80 nM
- IC50 (P2X7 [3]; read-out: IC50): 84 nM

SMILES: COc1ccc2c(c1)c(CC(=O)O)c(C)n2C(=O)c1ccc(Cl)cc1 [indomethacin]
- effect relative to the vehicle treated group (hind paws edema) (Balb/cByJ mice; day 5): 63%
- effect relative to the vehicle treated group (hind paws edema) (Balb/cByJ mice; day 7): 70%
- effect relative to the vehicle treated group (hind paws edema) (Balb/cByJ mice; day 10): 80%
- effect relative to the vehicle treated group (hind paws edema) (Balb/cByJ mice; day 14): 88%
- effect relative to the vehicle treated group (hind paws edema) (Balb/cByJ mice; day 17): 85%

SMILES: c1ccc([C@H]2NC(COC3CCCCC3)=N[C@H]2c2ccccc2)cc1 [2-[(Cyclohexyloxy)methyl]-cis-4,5-diphenyl-4,5-dihydro-1H-imidazole trifluoroacetate]
- IC50 (P2X7 [3]; read-out: IC50): 315 nM

SMILES: Fc1cccc([C@H]2NC(CCc3cccs3)=N[C@H]2c2cccc(F)c2)c1 [2-[(2-Thiophen-2-yl)ethyl]-cis-4,5-bis-(3-fluorophenyl)-4,5-dihydro-1H-imidazole trifluoroacetate]
- IC50 (P2X7 [3]; read-out: IC50): 592 nM

SMILES: Fc1ccc(CNC2=N[C@@H](c3ccc(F)cc3)[C@@H](c3ccc(F)cc3)N2)cc1
- IC50 (P2X7 [3]; read-out: IC50): 338 nM

Next, values leading:

- IC50 (P2X7 [2]; [4]): 157 nM
- IC50 (P2X7 [3]; read-out: IC50): 13 nM
SMILES: Fc1ccc(CC2=N[C@@H](c3ccccc3)[C@@H](c3ccccc3)N2)cc1Cl [trifluoroacetate]

- IC50 (P2X7 [2]; [4]): 693 nM
SMILES: Fc1ccc(CNC2=NC(c3ccccc3)C(c3ccccc3)N2)cc1 (stereo not shown) [hydrochloride]

- IC50 (P2X7 [2]; [4]): 178 nM
SMILES: CC(C)(CC1=NC(c2ccccc2)C(c2ccccc2)N1)c1ccccc1 (stereo not shown) [trifluoroacetate]

- IC50 (P2X7 [3]; read-out: IC50): 594 nM
SMILES: Cc1ccc(F)c(CC2=N[C@@H](c3ccccc3)[C@@H](c3ccccc3)N2)c1F [trifluoroacetate]

- IC50 (P2X7 [3]; read-out: IC50): 229 nM
SMILES: Cc1cccc(CCC2=N[C@@H](c3ccccc3)[C@@H](c3ccccc3)N2)c1 [2-[2-(3-Methylphenyl)ethyl]-cis-4,5-diphenyl-4,5-dihydro-1H-imidazole trifluoroacetate]

- IC50 (P2X7 [3]; read-out: IC50): 187 nM
SMILES: Cc1cccc(CNC2=N[C@@H](c3ccccc3)[C@@H](c3ccccc3)N2)c1 [cis-4,5-diphenyl-2-(3-methylbenzyl)amino-4,5-dihydro-1H-imidazole]

- IC50 (P2X7 [3]; read-out: IC50): 307 nM
SMILES: Clc1ccc(CNC2=N[C@@H](c3ccccc3)[C@@H](c3ccccc3)N2)cc1Cl [cis-4,5-diphenyl-2-(3,4-dichlorobenzyl)amino-4,5-dihydro-1H-imidazole]
